Several values for one entry are separate records, joined by “and”; a condition that tells them apart may be missing. Identical values can stand only once.
Tests used:
Estrogen receptor beta [1] = molecular target: T1, Estrogen receptor beta (Homo sapiens, UniProt Q92731); experiment: Antagonist effect on transcriptional activation in HEC-1 cells expressing Estrogen receptor beta at 10e-6 M against 10e-9 M estradiol; assay type: functional, cell-based
Estrogen receptor beta [2] = molecular target: T1, Estrogen receptor beta; experiment: Agonist effect on transcriptional activation in HEC-1 cells expressing Estrogen receptor beta at 10e-8 M; assay type: functional, cell-based
Estrogen receptor = molecular target: T2, Estrogen receptor (Homo sapiens, UniProt P03372)
T2 sequence (P03372 whole entry): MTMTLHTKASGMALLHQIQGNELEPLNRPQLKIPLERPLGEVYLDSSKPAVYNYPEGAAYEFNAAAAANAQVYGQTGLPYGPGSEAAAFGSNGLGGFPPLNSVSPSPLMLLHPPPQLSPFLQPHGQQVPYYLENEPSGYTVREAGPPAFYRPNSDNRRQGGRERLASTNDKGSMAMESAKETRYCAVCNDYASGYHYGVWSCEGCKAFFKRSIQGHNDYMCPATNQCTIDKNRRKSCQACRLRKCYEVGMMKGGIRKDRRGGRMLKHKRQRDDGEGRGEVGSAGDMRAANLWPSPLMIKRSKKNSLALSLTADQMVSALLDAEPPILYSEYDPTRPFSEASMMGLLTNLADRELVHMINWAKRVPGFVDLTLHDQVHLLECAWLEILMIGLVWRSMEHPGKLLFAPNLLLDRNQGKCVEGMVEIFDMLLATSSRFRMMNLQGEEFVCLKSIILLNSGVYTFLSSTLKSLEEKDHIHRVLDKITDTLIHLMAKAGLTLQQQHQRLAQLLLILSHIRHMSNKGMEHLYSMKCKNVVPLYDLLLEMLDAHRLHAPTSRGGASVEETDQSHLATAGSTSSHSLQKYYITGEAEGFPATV

Estrogen receptor beta [3] = molecular target: T1, Estrogen receptor beta

T1 sequence (Q92731 whole entry): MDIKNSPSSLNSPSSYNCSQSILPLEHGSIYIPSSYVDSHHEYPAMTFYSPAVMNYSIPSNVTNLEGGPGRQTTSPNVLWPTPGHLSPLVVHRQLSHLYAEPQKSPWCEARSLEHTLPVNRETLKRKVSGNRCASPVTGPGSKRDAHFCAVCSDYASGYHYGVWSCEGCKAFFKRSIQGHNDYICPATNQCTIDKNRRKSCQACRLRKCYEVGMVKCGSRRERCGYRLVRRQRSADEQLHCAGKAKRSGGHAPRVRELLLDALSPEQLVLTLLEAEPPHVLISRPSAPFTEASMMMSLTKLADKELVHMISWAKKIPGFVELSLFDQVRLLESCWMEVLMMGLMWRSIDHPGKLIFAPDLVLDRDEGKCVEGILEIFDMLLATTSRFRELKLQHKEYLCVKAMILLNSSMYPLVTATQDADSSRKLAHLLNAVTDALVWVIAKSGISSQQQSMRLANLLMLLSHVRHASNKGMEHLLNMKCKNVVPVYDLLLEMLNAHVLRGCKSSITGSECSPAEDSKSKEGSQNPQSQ

Row | Efficacy (Estrogen receptor beta [1]) [%] | Efficacy (Estrogen receptor beta [2]) | Ki (Estrogen receptor) [nM] | Ki (Estrogen receptor beta [3]) [nM] | Compound
1 | 69 | 1.3% and 20% | 0.15 | 0.27 | O/N=C/c1ccc(-c2ccccc2)c(-c2ccccc2)c1
2 | 53 | 2.6% and 24% | 1.1 | 1.7 | O/N=C/c1ccc(-c2ccccc2)c(-c2ccccc2)c1O
3 | 71 | 1.1% and 22% | 3.7 | 5.2 | CNc1c(/C=N/O)ccc(-c2ccccc2)c1-c1ccccc1
4 | 85 | 0.94% and 4.9% | 0.47 | 0.048 | CCNc1c(/C=N/O)ccc(-c2ccccc2)c1-c1ccccc1
5 | 31 | 6% and 23% | 2.2 | 2.8 | Nc1c(/C=N/O)ccc(-c2ccccc2)c1-c1ccccc1

Source: ChEMBL document CHEMBL1145083, “Novel estrogen receptor ligands based on an anthranylaldoxime structure: role of the phenol-type pseudocycle in the binding process” (J Med Chem, 2003)
